Where two headings read alike, the source gives them in different places.
Key:
PYL11 = target: T1, PYL11 (Arabidopsis thaliana, UniProt Q9FJ50); assay: receptor-mediated PP2C (HAB1) inhibition in vitro assay; format: biochemical; conditions: Table VII; read-out: PP2C Dose Curves PYL11 (IC50)
T1 construct: made in house; host or cells: E. coli BL21[DE3]pLysS
T1 sequence (Q9FJ50 1-161): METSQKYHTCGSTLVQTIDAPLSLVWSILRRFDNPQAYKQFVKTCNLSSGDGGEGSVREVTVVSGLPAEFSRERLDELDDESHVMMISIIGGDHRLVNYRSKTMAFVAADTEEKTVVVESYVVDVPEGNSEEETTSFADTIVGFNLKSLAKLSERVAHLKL
T1 sequence (Q9CAJ0 23-511 partner): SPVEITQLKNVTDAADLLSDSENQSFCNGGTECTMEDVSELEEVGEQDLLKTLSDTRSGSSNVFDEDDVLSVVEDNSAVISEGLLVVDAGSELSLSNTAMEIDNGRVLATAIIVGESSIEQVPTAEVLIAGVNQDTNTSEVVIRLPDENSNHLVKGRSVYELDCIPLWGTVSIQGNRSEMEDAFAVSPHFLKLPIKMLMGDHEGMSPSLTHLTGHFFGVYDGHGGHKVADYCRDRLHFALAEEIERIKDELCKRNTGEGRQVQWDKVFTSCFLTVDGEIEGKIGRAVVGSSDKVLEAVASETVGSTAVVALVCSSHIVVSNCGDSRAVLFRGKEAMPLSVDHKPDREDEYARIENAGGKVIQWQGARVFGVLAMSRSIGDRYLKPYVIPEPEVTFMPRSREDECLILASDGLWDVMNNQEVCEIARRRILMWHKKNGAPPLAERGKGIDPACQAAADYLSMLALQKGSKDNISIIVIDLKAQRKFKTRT
Protocol: (§1) A family of 62 structurally related N-acyl sulfonamides (Tables I-V) were tested for ABA agonist activity using multiple receptor-mediated PP2C inhibition in vitro assays (Park et al., 2009). […] The constructs utilized for protein expression have been previously described (Okamoto et al. 2013). For constructs encoding 6X-His-fusion proteins (all receptors except PYL11), the coding sequences were of the receptors were cloned in the vector pET28, expressed in BL21[DE3]pLysS E. coli host cells at 18° C. overnight, and subsequently purified from sonicated lysates using Ni-NTA agarose (Qiagen, USA), according to the manufacturer's instructions. PYL11 was constructed as a maltose binding protein fusion in the vector pMAL-c, expressed in BL21┌DE3┐pLysS host cells and purified using amylose resin (New England Biolabs) as described by the manufacturer. Recombinant GST-HAB1 was expressed and purified as described previously (Park et al., 2009). PP2C activity assays were conducted using the fluorogenic phosphatase substrate 4-methylumbelliferyl-phosphate. Recombinant receptors and HAB1 were used to examine ligand-induced PP2C inactivation in response to multiple test compounds. Enzyme inhibition assays were conducted using the following assay conditions: 50 nM GST-PP2C, 100 mM Tris-OAc (pH 7.9), 100 mM NaCl, 1 mM MnCl2, 1% β-mercaptoethanol. […] Because of this, the ratio of each receptor used in the PP2C-inhibitions assays was established empirically as the minimum fold-excess of receptor required to elicit maximal PP2C inhibition at a saturating ABA concentration (10 μM).
(§2) Based on this criterion, we used a ratio of 2:1 receptor in the assays described herein.
(§3) Using the above assay conditions, compounds were tested at 25 μM for agonist activity on PYL4, PYL5, PYL8 and PYL9. […] Consequently, a subset of the compounds was tested at multiple concentrations against 11 receptors so that IC50 values and receptor selectivity profiles could be examined. […] Thus, the N-acylsulfonamide agonists disclosed are selective for monomeric receptors.
(§4) Additional compounds were tested for biological activity following the procedures of Example 1 with minor modifications.
(§5) For these in vitro receptor assays, the compounds listed were tested in in vitro PP2C inhibition assays with 50 uM of the test compound except for ABA (10 uM). IC50s were calculated from dose curves, but only for selected compounds.

PYL6 = target: T2, PYL6 (Arabidopsis thaliana, UniProt Q8S8E3); assay: as above; format: biochemical; conditions: Table VII; read-out: PP2C Dose Curves PYL6 (IC50)
T2 construct: 6X-His; made in house; host or cells: E. coli BL21[DE3]pLysS
T2 sequence (Q8S8E3 1-215): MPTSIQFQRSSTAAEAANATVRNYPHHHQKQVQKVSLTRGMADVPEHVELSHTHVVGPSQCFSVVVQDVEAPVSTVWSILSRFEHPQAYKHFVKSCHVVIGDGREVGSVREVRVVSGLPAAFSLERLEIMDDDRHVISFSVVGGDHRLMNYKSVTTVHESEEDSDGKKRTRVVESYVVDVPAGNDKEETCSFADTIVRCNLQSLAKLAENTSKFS
T2 sequence (Q9CAJ0 23-511 partner): T1 sequence (Q9CAJ0 23-511 partner)
Protocol: as §1, §2, §3, §4, §5

PYL4 = target: T3, PYL4 (Arabidopsis thaliana, UniProt O80920); assay: as above; format: biochemical; conditions: compound at 25 μM; control without agonist = 100%
T3 construct: 6X-His; made in house; host or cells: E. coli BL21[DE3]pLysS
T3 sequence (O80920 1-207): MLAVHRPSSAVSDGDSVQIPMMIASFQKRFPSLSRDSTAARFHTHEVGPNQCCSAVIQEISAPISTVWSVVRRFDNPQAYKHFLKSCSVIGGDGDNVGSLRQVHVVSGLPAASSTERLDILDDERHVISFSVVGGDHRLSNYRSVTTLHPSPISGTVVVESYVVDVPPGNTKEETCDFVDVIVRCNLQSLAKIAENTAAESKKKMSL
T3 sequence (Q9CAJ0 23-511 partner): T1 sequence (Q9CAJ0 23-511 partner)
Protocol: as §1, §2, §3, §4, §5

PYL9 = target: T4, PYL9 (Arabidopsis thaliana, UniProt Q84MC7); assay: as above; format: biochemical; conditions: for remaining activity at 25 µM / PP2C Activity (25 μm) PYL9: compound at 25 μM, control without agonist = 100%
T4 construct: 6X-His; made in house; host or cells: E. coli BL21[DE3]pLysS
T4 sequence (Q84MC7 1-187): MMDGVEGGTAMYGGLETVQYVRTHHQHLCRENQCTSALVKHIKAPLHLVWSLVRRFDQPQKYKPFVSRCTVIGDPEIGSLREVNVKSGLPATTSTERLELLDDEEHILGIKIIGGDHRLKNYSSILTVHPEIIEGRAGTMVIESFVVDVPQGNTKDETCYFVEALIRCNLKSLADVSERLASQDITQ
T4 sequence (Q9CAJ0 23-511 partner): T1 sequence (Q9CAJ0 23-511 partner)
Protocol: as §1, §2, §3, §4, §5

PYL5 = target: T5, PYL5 (Arabidopsis thaliana, UniProt Q9FLB1); assay: as above; format: biochemical; conditions: for remaining activity at 25 µM / PP2C Activity (25 μm) PYL5: compound at 25 μM, control without agonist = 100%
T5 construct: 6X-His; made in house; host or cells: E. coli BL21[DE3]pLysS
T5 sequence (Q9FLB1 1-203): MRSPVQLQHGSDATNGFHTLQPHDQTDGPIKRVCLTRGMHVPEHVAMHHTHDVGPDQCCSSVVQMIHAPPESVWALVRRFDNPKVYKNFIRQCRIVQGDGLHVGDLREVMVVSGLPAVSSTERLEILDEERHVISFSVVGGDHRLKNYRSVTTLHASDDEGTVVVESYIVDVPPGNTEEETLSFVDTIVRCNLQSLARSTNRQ
T5 sequence (Q9CAJ0 23-511 partner): T1 sequence (Q9CAJ0 23-511 partner)
Protocol: as §1, §2, §3, §4, §5

PYL8 = target: T6, PYL8 (Arabidopsis thaliana, UniProt Q9FGM1); assay: as above; format: biochemical; conditions: for remaining activity at 25 µM / PP2C Activity (25 μm) PYL8: compound at 25 μM, control without agonist = 100%
T6 construct: 6X-His; made in house; host or cells: E. coli BL21[DE3]pLysS
T6 sequence (Q9FGM1 1-188): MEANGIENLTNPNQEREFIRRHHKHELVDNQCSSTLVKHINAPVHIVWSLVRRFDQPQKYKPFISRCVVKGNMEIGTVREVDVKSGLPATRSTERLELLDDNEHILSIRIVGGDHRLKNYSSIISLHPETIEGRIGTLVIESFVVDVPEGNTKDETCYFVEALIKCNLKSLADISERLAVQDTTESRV
T6 sequence (Q9CAJ0 23-511 partner): T1 sequence (Q9CAJ0 23-511 partner)
Protocol: as §1, §2, §3, §4, §5

[1] = system: Arabidopsis seed germination and hypocotyl growth; assay: Arabidopsis seed germination and hypocotyl growth; format: in vivo; conditions: − = none; for Hypocotyl Growth Inhibition: Germination Inhibition II, tested at 10 and 50 uM, lowest concentration that inhibited hypocotyl growth in wells where seeds germinated; for minimal effective concentration: Table VIII, tested at 10 or 50 μM, lowest inhibiting concentration, read-out: Hypocotyl Growth Inhibition
Protocol: We germinated seeds from wild type on ½× strength Murashige and Skoog salts growth medium containing either 10 or 50 μM for all 62 compounds as well as 1 μM (+)-ABA and mock controls. […] To investigate if the any of the compounds are sufficient to control vegetative ABA responses, we treated three week old Arabidopsis plants with aqueous solutions containing 0.02% Silwet and either 50 μM of selected N-acylsulfonamides, 50 μM ABA or 0.1% DMSO (the carrier solvent for the compounds tested). The leaf temperatures were subsequently examined using a thermal imaging camera 24 hours after treatment. It is well known that ABA-induced guard cell closure reduces transpiration, which leads to increases in leaf temperatures. It has been estimated that a 1° C. increase in leaf temperature correlates with a decrease in transpiration rates by approximately 50% (Sirault et al., 2009). Since guard cell aperture is the primary determinant of transpiration rates, thermal imaging is a useful way to indirectly infer relative transpiration rates and, indirectly, relative degrees of guard cell opening at the whole plant level.
as §4
For the germination inhibition experiment, the compounds were tested at 10 and 50 uM. The amounts shown are the lowest of the two concentrations that either inhibited germination or hypocotyl growth in wells where seeds germinated.
For the germination test, the compounds were tested at 1, 5, 10, 25 and 50 uM. The amounts shown are the lowest of the concentrations that either inhibited germination or hypocotyl growth in the wells where seeds germinated.

Structure (SMILES)	IC50 (PYL11) [µM]	IC50 (PYL6) [µM]	remaining activity at 25 µM (PYL4) [%]	IC50 (PYL9; Table VII, read-out: PP2C Dose Curves PYL9 (IC50)) [µM]	remaining activity at 25 µM (PYL9) [%]	IC50 (PYL5; Table VII, read-out: PP2C Dose Curves PYL5 (IC50)) [µM]	remaining activity at 25 µM (PYL5) [%]	IC50 (PYL8; Table VII, read-out: PP2C Dose Curves PYL8 (IC50)) [µM]	remaining activity at 25 µM (PYL8) [%]	PP2C Activity (25 μm) PYL4 (PYL4) [%]	PP2C Activity (25 μm) PYL9 (PYL9) [%]	PP2C Activity (25 μm) PYL5 (PYL5) [%]	PP2C Activity (25 μm) PYL8 (PYL8) [%]	Hypocotyl Growth Inhibition [1] [µM]	minimal effective concentration [1] [µM]	minimal effective concentration ([1]; Arabidopsis thaliana) [µM]
N#Cc1ccc(CS(=O)(=O)NC(=O)C2(c3cccc(F)c3)CC2)cc1 [Compound 46]	18.5	15.3	95	39.6	55	7.06	24	111	73							
CC(C)(C(=O)NS(=O)(=O)Cc1ccc(C#N)cc1)c1ccc2c(c1)OCCO2 [Compound 53]										89	98	95	99	50	50	
CC(C)(C(=O)NS(=O)(=O)Cc1ccc(C#N)cc1)c1ccc2ccccc2c1 [Compound 54]										97	109	68	106	50	50	
CC1(C(=O)NS(=O)(=O)Cc2ccc(C#N)cc2)CCCc2ccccc21 (stereo not drawn) [Compound 61]			91		68		16		75					50		50

From US10757937B2, “Sulfonamides that activate ABA receptors” (The Regents of the University of California, priority 2014, dated 2020)
